Reference: patent US10428083B2, “Heterocyclylmethyl-thienouracile as antagonists of the adenosine-A2B-receptor” (BAYER PHARMA AKTIENGESELLSCHAFT, priority 2015, dated 2019)

molecular target: human adenosine A2b receptor (Homo sapiens (Human), UniProt P29275); test: Cellular in vitro reporter gene test for A2b receptor activity (CHO-K1, CRE-luciferase, NECA stimulation); assay type: cell-based; details: recombinant CHO-K1 cell line, CRE-luciferase reporter, antagonism of EC50 concentration of NECA; in some cases means of several determinations, rounded to two significant figures; read-out: A2b receptor IC50
Sequence (P29275 whole entry): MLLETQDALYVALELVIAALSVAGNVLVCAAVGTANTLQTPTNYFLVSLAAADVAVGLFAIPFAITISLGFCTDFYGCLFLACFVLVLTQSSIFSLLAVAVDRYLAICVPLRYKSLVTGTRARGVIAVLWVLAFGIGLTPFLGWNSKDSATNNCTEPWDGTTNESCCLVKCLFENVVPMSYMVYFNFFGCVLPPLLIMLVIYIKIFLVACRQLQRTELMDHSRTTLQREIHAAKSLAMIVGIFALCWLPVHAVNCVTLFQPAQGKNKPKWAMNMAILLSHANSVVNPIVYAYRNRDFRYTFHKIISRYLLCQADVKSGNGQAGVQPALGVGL
Summary of the method: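 CHO-K1 cells with CRE-driven luciferase; antagonists co-incubated with NECA at its EC50, determined in a pre-experiment on each test day. Luciferase read by luminescence 3 h after NECA addition.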

SMILES	IC50
CCn1c(=O)c2c(C(F)(F)F)c(CN3CCCS3(=O)=O)sc2n(CCC(F)(F)F)c1=O [Example 19, 6-[(1,1-Dioxido-1,2-thiazolidin-2-yl)methyl]-3-ethyl-5-(trifluoromethyl)-1-(3,3,3-trifluoropropyl)thieno[2,3-d]pyrimidine-2,4(1H,3H)-dione]	5.6 nM
CCn1c(=O)c2c(C)c(CN3CCOC3=O)sc2n(CCC(F)(F)F)c1=O [Example 21, 3-Ethyl-5-methyl-6-[(2-oxo-1,3-oxazolidin-3-yl)methyl]-1-(3,3,3-trifluoropropyl)thieno[2,3-d]pyrimidine-2,4(1H,3H)-dione]	5.1 nM
COCCn1c(=O)n(CCc2ccccc2)c(=O)c2c(C(F)(F)F)c(CN3CCOC3=O)sc21 [Example 22, 1-(2-Methoxyethyl)-6-[(2-oxo-1,3-oxazolidin-3-yl)methyl]-3-(2-phenylethyl)-5-(trifluoromethyl)thieno[2,3-d]pyrimidine-2,4(1H,3H)-dione]	24 nM
CCn1c(=O)c2c(C(F)(F)F)c(CN3CCOC3=O)sc2n(CCC(F)(F)F)c1=O [Example 23, 3-Ethyl-6-[(2-oxo-1,3-oxazolidin-3-yl)methyl]-5-(trifluoromethyl)-1-(3,3,3-trifluoropropyl)thieno[2,3-d]pyrimidine-2,4(1H,3H)-dione]	16 nM
CCn1c(=O)c2c(C)c(CN3C(=O)OCC3(C)C)sc2n(CCC(F)(F)F)c1=O [Example 24, 6-[(4,4-Dimethyl-2-oxo-1,3-oxazolidin-3-yl)methyl]-3-ethyl-5-methyl-1-(3,3,3-trifluoropropyl)thieno[2,3-d]pyrimidine-2,4(1H,3H)-dione]	8.8 nM
CCn1c(=O)c2c(C)c(CN3CCCOC3=O)sc2n(CCC(F)(F)F)c1=O [Example 25, 3-Ethyl-5-methyl-6-[(2-oxo-1,3-oxazinan-3-yl)methyl]-1-(3,3,3-trifluoropropyl)thieno[2,3-d]pyrimidine-2,4(1H,3H)-dione]	5.7 nM
CCn1c(=O)c2c(C)c(CN3CCN(C(=O)OC(C)(C)C)S3(=O)=O)sc2n(CCC(F)(F)F)c1=O [Example 26, tert-Butyl 5-{[3-ethyl-5-methyl-2,4-dioxo-1-(3,3,3-trifluoropropyl)-1,2,3,4-tetrahydrothieno[2,3-d]pyrimidin-6-yl]methyl}-1,2,5-thiadiazolidine-2-carboxylate 1,1-dioxide]	11 nM
CCn1c(=O)c2c(C)c(CN3CCNS3(=O)=O)sc2n(CCC(F)(F)F)c1=O [Example 27, 6-[(1,1-Dioxido-1,2,5-thiadiazolidin-2-yl)methyl]-3-ethyl-5-methyl-1-(3,3,3-trifluoropropyl)thieno[2,3-d]pyrimidine-2,4(1H,3H)-dione]	2.7 nM
CCn1c(=O)c2c(C)c(CN3CCNC3=S)sc2n(CCC(F)(F)F)c1=O [Example 28, 3-Ethyl-5-methyl-6-[(2-thioxoimidazolidin-1-yl)methyl]-1-(3,3,3-trifluoropropyl)thieno[2,3-d]pyrimidine-2,4(1H,3H)-dione]	1.9 nM
CCn1c(=O)c2c(C)c(CN3CCNC3=S)sc2n(CCCF)c1=O [Example 29, 3-Ethyl-1-(3-fluoropropyl)-5-methyl-6-[(2-thioxoimidazolidin-1-yl)methyl]thieno[2,3-d]pyrimidine-2,4(1H,3H)-dione]	4.1 nM
CCn1c(=O)c2c(C)c(CN3CCNC3=S)sc2n(CCCCF)c1=O [Example 30, 3-Ethyl-1-(4-fluorobutyl)-5-methyl-6-[(2-thioxoimidazolidin-1-yl)methyl]thieno[2,3-d]pyrimidine-2,4(1H,3H)-dione]	5 nM
CCn1c(=O)c2c(C)c(CN3CCNC3=S)sc2n(CCOC)c1=O [Example 31, 3-Ethyl-1-(2-methoxyethyl)-5-methyl-6-[(2-thioxoimidazolidin-1-yl)methyl]thieno[2,3-d]pyrimidine-2,4(1H,3H)-dione]	2.2 nM
CCOCCn1c(=O)n(CC)c(=O)c2c(C)c(CN3CCNC3=S)sc21 [Example 32, 1-(2-Ethoxyethyl)-3-ethyl-5-methyl-6-[(2-thioxoimidazolidin-1-yl)methyl]thieno[2,3-d]pyrimidine-2,4(1H,3H)-dione]	11 nM
CCn1c(=O)c2c(C)c(CN3CCNC3=S)sc2n(CCOC(C)C)c1=O [Example 33, 3-Ethyl-1-(2-isopropoxyethyl)-5-methyl-6-[(2-thioxoimidazolidin-1-yl)methyl]thieno[2,3-d]pyrimidine-2,4(1H,3H)-dione]	12 nM
CCn1c(=O)c2c(C)c(CN3CCNC3=S)sc2n(CCC(C)(C)C)c1=O [Example 37, 1-(3,3-Dimethylbutyl)-3-ethyl-5-methyl-6-[(2-thioxoimidazolidin-1-yl)methyl]thieno[2,3-d]pyrimidine-2,4(1H,3H)-dione]	220 nM
Cc1c(CN2CCNC2=S)sc2c1c(=O)n(CC(C)C)c(=O)n2CCC(F)(F)F [Example 38, 3-Isobutyl-5-methyl-6-[(2-thioxoimidazolidin-1-yl)methyl]-1-(3,3,3-trifluoropropyl)thieno[2,3-d]pyrimidine-2,4(1H,3H)-dione]	1.9 nM
COCCn1c(=O)n(CC(C)C)c(=O)c2c(C)c(CN3CCNC3=S)sc21 [Example 39, 3-Isobutyl-1-(2-methoxyethyl)-5-methyl-6-[(2-thioxoimidazolidin-1-yl)methyl]thieno[2,3-d]pyrimidine-2,4(1H,3H)-dione]	3.6 nM

SMILES	IC50
Cc1c(CN2CCNC2=S)sc2c1c(=O)n(CC(F)(F)F)c(=O)n2CCCF [Example 40, 1-(3-Fluoropropyl)-5-methyl-6-[(2-thioxoimidazolidin-1-yl)methyl]-3-(2,2,2-trifluoroethyl)thieno[2,3-d]pyrimidine-2,4(1H,3H)-dione]	7 nM
COCCn1c(=O)n(CC(F)(F)F)c(=O)c2c(C)c(CN3CCNC3=S)sc21 [Example 41, 1-(2-Methoxyethyl)-5-methyl-6-[(2-thioxoimidazolidin-1-yl)methyl]-3-(2,2,2-trifluoroethyl)thieno[2,3-d]pyrimidine-2,4(1H,3H)-dione]	12 nM
Cc1c(CN2CCNC2=S)sc2c1c(=O)n(CC(F)F)c(=O)n2CCCF [Example 42, 3-(2,2-Difluoroethyl)-1-(3-fluoropropyl)-5-methyl-6-[(2-thioxoimidazolidin-1-yl)methyl]thieno[2,3-d]pyrimidine-2,4(1H,3H)-dione]	11 nM
COCCn1c(=O)n(CC(F)F)c(=O)c2c(C)c(CN3CCNC3=S)sc21 [Example 43]	7.7 nM
CCn1c(=O)c2c(C(F)F)c(CN3CCNC3=S)sc2n(CCC(F)(F)F)c1=O [Example 44, 5-(Difluoromethyl)-3-ethyl-6-[(2-thioxoimidazolidin-1-yl)methyl]-1-(3,3,3-trifluoropropyl)thieno[2,3-d]pyrimidine-2,4(1H,3H)-dione]	5.2 nM
CCn1c(=O)c2c(C(F)F)c(CN3CCNC3=S)sc2n(CCOC)c1=O [Example 45, 5-(Difluoromethyl)-3-ethyl-1-(2-methoxyethyl)-6-[(2-thioxoimidazolidin-1-yl)methyl]thieno[2,3-d]pyrimidine-2,4(1H,3H)-dione]	12 nM
COCCn1c(=O)n(CC(C)C)c(=O)c2c(C)c(CN3CCN(C=O)C3=S)sc21 [Example 46, 3-{[3-Isobutyl-1-(2-methoxyethyl)-5-methyl-2,4-dioxo-1,2,3,4-tetrahydrothieno[2,3-d]pyrimidin-6-yl]methyl}-2-thioxoimidazolidine-1-carbaldehyde]	29 nM
CCn1c(=O)c2c(C)c(CN3CCNC3=O)sc2n(CC(F)(F)F)c1=O [Example 47, 3-Ethyl-5-methyl-6-[(2-oxoimidazolidin-1-yl)methyl]-1-(2,2,2-trifluoroethyl)thieno[2,3-d]pyrimidine-2,4(1H,3H)-dione]	14 nM
CCn1c(=O)c2c(C)c(CN3CCNC3=O)sc2n(CCC(F)(F)F)c1=O [Example 48, 3-Ethyl-5-methyl-6-[(2-oxoimidazolidin-1-yl)methyl]-1-(3,3,3-trifluoropropyl)thieno[2,3-d]pyrimidine-2,4(1H,3H)-dione]	1.4 nM
CCn1c(=O)c2c(C)c(CN3CCNC3=O)sc2n(CCCC(F)(F)F)c1=O [Example 49, 3-Ethyl-5-methyl-6-[(2-oxoimidazolidin-1-yl)methyl]-1-(4,4,4-trifluorobutyl)thieno[2,3-d]pyrimidine-2,4(1H,3H)-dione]	2.5 nM
CCn1c(=O)c2c(C)c(CN3CCNC3=O)sc2n(CCF)c1=O [Example 50, 3-Ethyl-1-(2-fluoroethyl)-5-methyl-6-[(2-oxoimidazolidin-1-yl)methyl]thieno[2,3-d]pyrimidine-2,4(1H,3H)-dione]	4.6 nM
CCn1c(=O)c2c(C)c(CN3CCNC3=O)sc2n(CCCF)c1=O [Example 51, 3-Ethyl-1-(3-fluoropropyl)-5-methyl-6-[(2-oxoimidazolidin-1-yl)methyl]thieno[2,3-d]pyrimidine-2,4(1H,3H)-dione]	12 nM
CCn1c(=O)c2c(C)c(CN3CCNC3=O)sc2n(CCCCF)c1=O [Example 52, 3-Ethyl-1-(4-fluorobutyl)-5-methyl-6-[(2-oxoimidazolidin-1-yl)methyl]thieno[2,3-d]pyrimidine-2,4(1H,3H)-dione]	6.6 nM
C=C(Cn1c(=O)n(CC)c(=O)c2c(C)c(CN3CCNC3=O)sc21)C(F)(F)F [Example 53, 3-Ethyl-5-methyl-6-[(2-oxoimidazolidin-1-yl)methyl]-1-[2-(trifluoromethyl)prop-2-en-1-yl]thieno[2,3-d]pyrimidine-2,4(1H,3H)-dione]	14 nM
CCn1c(=O)c2c(C)c(CN3CCNC3=O)sc2n(CCOC(F)(F)F)c1=O [Example 57, 3-Ethyl-5-methyl-6-[(2-oxoimidazolidin-1-yl)methyl]-1-[2-(trifluoromethoxy)ethyl]thieno[2,3-d]pyrimidine-2,4(1H,3H)-dione]	0.88 nM
CCn1c(=O)c2c(C)c(CN3CCNC3=O)sc2n(CCSC(F)(F)F)c1=O [Example 58, 3-Ethyl-5-methyl-6-[(2-oxoimidazolidin-1-yl)methyl]-1-{2-[(trifluoromethyl)sulphanyl]ethyl}thieno[2,3-d]pyrimidine-2,4(1H,3H)-dione]	2.6 nM
